# Reference: US7214669B2, “Tetracycline derivatives and methods of use thereof” (Tetragenex Pharmaceuticals, Inc., priority 2001, dated 2007)
# Several values for one entry are separate records, joined by “and”; a condition that tells them apart may be missing. Equal entries are not always repeated. Structures can show the parent of a compound that is named as a salt.
# Experiments:
# [1] = target: T1, Human recombinant MMP1 (Homo sapiens, UniProt P03956); experiment: MMP1 (Collagenase-1) inhibition, 14C collagen release; assay type: biochemical; settings: 35° C., 5 hours; read-out: MMP-1 inhibitory activity, IC50
# T1 sequence (P03956 100-469): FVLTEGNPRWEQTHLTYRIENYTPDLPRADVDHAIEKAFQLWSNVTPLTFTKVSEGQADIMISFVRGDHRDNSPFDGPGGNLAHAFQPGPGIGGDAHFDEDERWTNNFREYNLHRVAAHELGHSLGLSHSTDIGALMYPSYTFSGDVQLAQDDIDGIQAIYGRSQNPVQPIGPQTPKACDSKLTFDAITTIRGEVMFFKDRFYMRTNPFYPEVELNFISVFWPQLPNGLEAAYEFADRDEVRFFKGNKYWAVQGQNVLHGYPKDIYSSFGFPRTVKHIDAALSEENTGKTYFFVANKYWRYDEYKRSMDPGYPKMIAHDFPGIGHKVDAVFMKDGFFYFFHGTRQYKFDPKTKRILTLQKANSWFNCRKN
# [2] = target: T2, MMP2 (Gelatinase A) (Homo sapiens, UniProt P08253); experiment: MMP2 (Gelatinase A) inhibition, 14C gelatin release; assay type: biochemical; settings: 37° C., 16 hours; read-out: MMP-2 inhibitory activity, IC50
# T2 sequence (P08253 110-660): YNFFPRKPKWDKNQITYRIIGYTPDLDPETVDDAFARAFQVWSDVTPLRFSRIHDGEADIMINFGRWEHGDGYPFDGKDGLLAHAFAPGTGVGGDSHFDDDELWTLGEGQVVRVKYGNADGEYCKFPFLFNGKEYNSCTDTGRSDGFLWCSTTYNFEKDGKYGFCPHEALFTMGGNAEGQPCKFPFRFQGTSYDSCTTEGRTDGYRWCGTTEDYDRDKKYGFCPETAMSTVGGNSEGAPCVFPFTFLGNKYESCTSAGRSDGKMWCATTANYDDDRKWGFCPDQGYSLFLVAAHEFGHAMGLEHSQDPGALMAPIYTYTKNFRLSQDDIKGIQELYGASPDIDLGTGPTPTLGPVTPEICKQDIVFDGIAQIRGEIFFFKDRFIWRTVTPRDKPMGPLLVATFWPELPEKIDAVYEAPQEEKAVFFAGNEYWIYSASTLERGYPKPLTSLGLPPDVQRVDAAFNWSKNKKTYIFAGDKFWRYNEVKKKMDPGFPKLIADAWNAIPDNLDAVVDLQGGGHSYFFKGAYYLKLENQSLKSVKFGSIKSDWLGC
# Experimental: Protocol for Measuring MMP2 (Gelatinase A) Inhibition
# MMP2 activity was determined by the release of trichloracetic acid, TCA, soluble fragments from ^14C acetylated rat skin type I gelatin (Methods in Enzymology 248, 470, 1995. Biochem. J. 195, 1981)
# • 100 μg ^14C labelled gelatin (type I collagen denatured 60° C. 20 min) • 50 mM Tris HCl pH 7.9 • 15 mM CaCl2, 0.02% azide • Human recombinant MMP1, 0.1–0.5 nM • ±Tetracycline (up to 1 MM) in a total volume of 250 μl.
# Incubations were set at 37° C. for 16 hours. The reaction was stopped by cooling the incubations and addition of 50 μl cold 90% (w/v) trichloracetic acid with careful mixing. TCA precipitation was allowed to proceed for 15 minutes at 4° C. prior to cetrifugation at 10,000 g for 10 minutes at 4° C. 200 μl of the TCA supernatant was taken for the determination of radioactive content by scintillation counting (Packard Opti Phase Supermix scintillation fluid). Only data derived from within the linear part of the assay (10–70% lysis) were utilized. The percentage inhibition of MMP2 by each tetracycline concentration was plotted to derive the IC50 value, using linear regression analysis.
# [3] = target: Human recombinant MMP3 (Homo sapiens, UniProt P08254); experiment: MMP3 (Stromelysin 1) inhibition, 14C casein release; assay type: biochemical; settings: 37° C., 16 hours; read-out: MMP-3 inhibitory activity, IC50
# Chain of Human recombinant MMP3 (P08254 100-477): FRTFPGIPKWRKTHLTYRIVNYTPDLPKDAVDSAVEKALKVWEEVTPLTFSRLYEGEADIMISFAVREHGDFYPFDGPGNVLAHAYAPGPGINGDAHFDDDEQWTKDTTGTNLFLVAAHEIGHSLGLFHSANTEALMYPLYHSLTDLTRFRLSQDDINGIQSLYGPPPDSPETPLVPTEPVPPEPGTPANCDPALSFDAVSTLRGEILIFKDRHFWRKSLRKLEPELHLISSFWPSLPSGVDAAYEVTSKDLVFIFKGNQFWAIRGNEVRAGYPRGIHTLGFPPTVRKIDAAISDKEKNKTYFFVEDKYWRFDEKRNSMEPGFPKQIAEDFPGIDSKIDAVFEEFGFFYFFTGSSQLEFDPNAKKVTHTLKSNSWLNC
# Experimental: Protocol for Measuring MMP3 (Stromelysin 1) Inhibition
# • 100 μg ^14C casein (7000 dpm) • 50 mM Tris HCl, pH 7.9 • 15 mM CaCl2, 0.02% azide • Human recombinant MMP3, 0.25–1.0 nM • ±tetracycline (up to 1 mM) in a total volume of 250 μl.
# Incubations were at 37° C. for 16 hours. The reaction was stopped by the addition of 500 μl cold 18% TCA and standing on ice for 15 minutes. TCA precipitates were removed by centrifugation at 10,000 g for 10 minutes at 4° C. and 200 μl supernatant was taken for scintillation counting. Only data derived from within the linear part of the assay (10–60% lysis) were utilized. The percentage inhibition of MMP3 by each concentration of the candidate tetracycline was plotted to derive the IC50 value, using linear regression analysis.
# [4] = target: Human recombinant MMP9 (Homo sapiens, UniProt P14780); experiment: MMP9 (Gelatinase B) inhibition, 14C gelatin release; assay type: biochemical; settings: 37° C., 16 hours; read-out: MMP-9 inhibitory activity, IC50
# Chain of Human recombinant MMP9 (P14780 94-707): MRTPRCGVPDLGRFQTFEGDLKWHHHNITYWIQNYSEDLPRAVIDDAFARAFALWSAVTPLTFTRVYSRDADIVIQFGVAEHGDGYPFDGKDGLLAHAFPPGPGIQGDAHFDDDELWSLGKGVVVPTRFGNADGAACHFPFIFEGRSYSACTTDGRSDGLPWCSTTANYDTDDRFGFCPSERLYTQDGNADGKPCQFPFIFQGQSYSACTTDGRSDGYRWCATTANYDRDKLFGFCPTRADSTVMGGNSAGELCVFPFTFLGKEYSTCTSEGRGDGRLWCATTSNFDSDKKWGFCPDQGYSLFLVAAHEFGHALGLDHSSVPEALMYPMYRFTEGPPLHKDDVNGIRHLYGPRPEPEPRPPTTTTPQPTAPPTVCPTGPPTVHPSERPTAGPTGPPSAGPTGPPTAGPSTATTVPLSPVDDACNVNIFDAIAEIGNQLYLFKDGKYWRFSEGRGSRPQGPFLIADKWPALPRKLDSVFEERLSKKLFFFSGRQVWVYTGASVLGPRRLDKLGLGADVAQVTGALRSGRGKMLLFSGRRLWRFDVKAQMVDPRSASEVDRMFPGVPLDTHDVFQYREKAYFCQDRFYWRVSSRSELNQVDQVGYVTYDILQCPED
# [5] = target: Human recombinant MMP14 (Homo sapiens, UniProt P50281); experiment: MMP14 (MTI-MMP) inhibition, 14C collagen release; assay type: biochemical; settings: 35° C., 15 hours; read-out: MMP-14 inhibitory activity, IC50
# Experimental: Protocol for Measuring MMP14 (MTI-MMP) Inhibition by Tetracycline Derivatives
# MMP14 activity was determined by the release of soluble ^14C labelled collagen fragments from ^14C acetylated rat skin type I collagen (Methods in Enzymology 80 711, 1981).
# • 100 μg ^14C labelled collagen (5–6000 dpm) • 50 mM Tris HCL pH 7.9 • 15 mM CaCl2 0.02% azide • Human recombinant MMP14 50–100 nM • ±Tetracycline (up to 1 mM) in a total volume of 300 μl.
# Incubations were at 35° C. for 15 hours. Uncleaved collagen fibrils (which form within the first 10 minutes) were removed by centrifugation at 10,000 g 4° C. 10 minutes 200 μl supernatant were counted in Packard Opti Phase Supermix scintillation fluid using a scintillation counter. Only data derived from within the linear part of the assay (10–70% lysis of the collagen) were utilized. Based on percentage inhibition of the activity of MMP1 alone by a range of concentrations of each sample, the IC50 value for each tetracycline was calculated.
# [6] = test system: C8161 human melanoma cells; experiment: Membrane Invasion Culture System (MICS) chemo-invasion assay; assay type: cell-based; settings: 25 ug/mL; 24 hours; + = increased invasiveness
# Text: (§1) Another objective was to analyze the effects of specific, tetracycline derived compounds on the in-vitro chemo-invasive potential of: • C8161 human melanoma cells • MDA-MB-231 human breast cancer cells • PC3 human prostate cancer cells • RPM18226 human myeloma cancer cells • Ark human myeloma cancer cells • Arp-1 human myeloma cancer cells
# (§2) The Membrane Invasion Culture System (MICS) in vitro chemo-invasion assay was chosen to measure changes in the invasive potential of specific human cancer cells in response to tetracycline derived compounds. Stock solutions of each compound were hydrated in water containing 2% DMSO and pH 10.0. Upon solubilization, HCl was added to the solution to establish a pH of 7.5–8.0. This solution was then wrapped in foil and kept at 4° C. during the 24 hours of assay. Fresh compound was prepared for each assay. The in vitro chemoinvasion analyses for tumor cell invasiveness are performed using the Membrane Invasion Culture System (MICS) as previously described.
# (§3) The MICS system is a thermally treated plastic manifold system consisting of two matched sets of plates containing fourteen wells, 13 mm in diameter. Interposed between these plates was a polycarbonate filter containing 10 μm pores and coated with a defined matrix composed of human laminin/collagen IV/gelatin that formed a 35 μm thick barrier between the top and bottom sections of the wells in MICS. Prior to placing this barrier in place, the lower wells were filled with serum-free RPMI culture medium made 50% in conditioned medium obtained from 2-day-old cultures of human fibroblasts which had been cleared of cells and cellular debris by either centrifugation, or filtering through a 0.45 μm sterile filter. The barrier was then placed on the lower wells and fresh serum-free medium added to the upper wells after assembly of the system. Fifty thousand tumor cells were then added to the wells either in the presence of the compound, or the DMSO vehicle (the controls). Of the 12 assay wells on each manifold, 3 randomized wells acted as controls, 3 wells received 1 μg/ml of compound, 3 received 10 μg/ml and 3 received 25 μg/ml. After 24 hours, cells and media were removed from the lower wells and replaced by phosphate buffered saline plus 2 mM EDTA. This solution was used to remove all cells from the lower well, and this wash was added to the recovered cells plus medium from the same well. These samples were then collected onto a polylysine containing polycarbonate membrane containing 3 μm pores using a Dot-Blot manifold system. These collection filters were then fixed in methanol, and stained using Wright's stain (Leukostat staining kit) in situ. The filters were then mounted on microscope slides with microscope immersion oil (which reduced the light refraction from the pores) and 5 microscopic fields were counted to calculate the number of cells which invaded through the membrane over the 24 hour period. These numbers were then statistically analyzed as discussed below.
# [7] = test system: MDA-MB-231 human breast cancer cells; experiment: as above; assay type: cell-based; settings: 25 ug/mL; 24 hours; + = increased invasiveness
# Text: as §1, §2, §3
# [8] = test system: PC-3 ML human prostate cancer cells; experiment: as above; assay type: cell-based; settings: 24 hours, + = increased invasiveness
# Text: as §1, §2, §3
Compound,IC50 [1],IC50 [2],IC50 [3],IC50 [4],IC50 [5],"percent inhibition, C8161 (Melanoma) [6]","percent inhibition, MDA-MB-231 (Breast) [7]","percent inhibition, PC-3 ML (Prostrate) ([8]; 1 ug/mL)","percent inhibition, PC-3 ML (Prostrate) ([8]; 10 ug/mL)","percent inhibition, PC-3 ML (Prostrate) ([8]; 25 ug/mL)"
"C[C@H]1c2c(N)ccc(O)c2C(=O)C2=C(O)[C@]3(O)C(=O)C(C(N)=O)=C(O)C[C@@H]3[C@@H](O)[C@@H]21 [Compound 48, 4-Dedimethylamino-7-amino-6-deoxy-5-hydroxyltetracycline H2SO4]",12800 µM,1930 µM,506 µM,424 µM,354 µM,,,,,
"CC1c2cccc(O)c2C(=O)C2=C(O)C3(O)C(=O)C(C(N)=O)=C(O)CC3C(O)C21 (stereo not shown) [Compound 34, 4-Dedimethylamino-6-deoxy-5-hydroxytetracycline]",242 µM,242 µM,136 µM,308 µM,197 µM,,,,,
"CCCCCCN(CCCCCC)c1ccc(O)c2c1C(C)C1C(=C(O)C3(O)C(=O)C(C(N)=O)=C(O)C(N(C)C)C3C1O)C2=O (stereo not shown) [Compound 18, 7-Di-n-Hexylamino-6-deoxy-5-hydroxytetracycline H2SO4]",123 µM,233 µM,335 µM,131 µM,102 µM,,,,,
"CC1c2ccc(N)c(O)c2C(=O)C2=C(O)C3(O)C(=O)C(C(N)=O)=C(O)CC3C(O)C21 (stereo not shown) [Compound 36, 9-animo-4-dedimethylamino-6-deoxy-5-hydroxytetracycline sulfate]",539 µM,> 1000 µM,283 µM,> 1000 µM,608 µM,,,,,
"CC1c2c([N+]#N)ccc(O)c2C(=O)C2=C(O)C3(O)C(=O)C(C(N)=O)=C(O)C(N(C)C)C3C(O)C21 (stereo not shown) [Compound 21, 6-Deoxy-5-hydroxytetracycline-7-diazonium H2SO4]",293 µM,> 1000 µM,> 1000 µM,79 µM,115 µM,,,,,
"CC1c2ccc([N+](=O)[O-])c(O)c2C(=O)C2=C(O)C3(O)C(=O)C(C(N)=O)=C(O)CC3C(O)C21 (stereo not shown) [Compound 35, 4-Dedimethylamino-6-deoxy-5-hydroxy-9-nitrotetracycline]",947 µM,249 µM,218 µM,397 µM,108 µM,,,,,
"CC(=O)Nc1cc([N+]#N)c(O)c2c1C(C)C1C(=C(O)C3(O)C(=O)C(C(N)=O)=C(O)C(N(C)C)C3C1O)C2=O (stereo not shown) [Compound 30, 7-Acetamido-6-deoxy-5-hydroxytetracycline-9-diazonium H2SO4]",576 µM,> 1000 µM,938 µM,> 1000 µM,> 1000 µM,,,,,
"CC1c2c([N+](=O)[O-])cc(C(C)(C)C)c(O)c2C(=O)C2=C(O)C3(O)C(=O)C(C(N)=O)=C(O)C(N(C)C)C3C(O)C21 (stereo not shown) [Compound 38, 7-nitro-9-tertbutyl-6-deoxy-5-hydroxytetracycline H2SO4]",230 µM,175 µM,95 µM,215 µM,69 µM,66^B percent and 39%,70^B percent and 37%,37^B percent and 38^B percent,41^B percent and 27^B percent,41% and 52%
"CC1c2c(NC3CCC3)ccc(O)c2C(=O)C2=C(O)C3(O)C(=O)C(C(N)=O)=C(O)C(N(C)C)C3C(O)C21 (stereo not shown) [Compound 32, 7-Cyclobutylamino-6-deoxy-5-hydroxytetracycline H2SO4]",601 µM,236 µM,244 µM,214 µM,197 µM,,,,,
"CC(=O)Nc1cc(N)c(O)c2c1C(C)C1C(=C(O)C3(O)C(=O)C(C(N)=O)=C(O)C(N(C)C)C3C1O)C2=O (stereo not shown) [Compound 26, 7-Acetamido-9-amino-6-deoxy-5-hydroxytetracycline H2SO4]",> 1000 µM,413 µM,> 1000 µM,384 µM,586 µM,,,,,
"CC1c2c(N(CCC(C)(C)C)CCC(C)(C)C)ccc(O)c2C(=O)C2=C(O)C3(O)C(=O)C(C(N)=O)=C(O)C(N(C)C)C3C(O)C21 (stereo not shown) [Compound 19, 7-Di-(3,3-dimethylbutyl)amino-6-deoxy-5-hydroxytetracycline H2SO4]",270 µM,925 µM,394 µM,98 µM,90 µM,,,,,
"C[C@H]1c2c(N(C)C)cc([N+]#N)c(O)c2C(=O)C2=C(O)[C@]3(O)C(=O)C(C(N)=O)=C(O)[C@@H](N(C)C)[C@@H]3[C@@H](O)[C@@H]21 [Compound 31, 7-Dimethylamino-6-deoxy-5-hydroxytetracycline-9-diazonium H2SO4]",621 µM,258 µM,> 1000 µM,311 µM,593 µM,,,,,
"CC1c2c(N=[N+]=[N-])ccc(O)c2C(=O)C2=C(O)C3(O)C(=O)C(C(N)=O)=C(O)C(N(C)C)C3C(O)C21 (stereo not shown) [Compound 20, 7-Azido-6-deoxy-5-hydroxy-tetracycline H2SO4]",429 µM,511 µM,281 µM,162 µM,266 µM,,,,,
7-Cyclobutylmethylamino-6-deoxy-5-hydroxytetracycline H2SO4 [Compound 33],295 µM,263 µM,205 µM,142 µM,94 µM,,,,,
"CC(C)CNc1ccc(O)c2c1C(C)C1C(=C(O)C3(O)C(=O)C(C(N)=O)=C(O)C(N(C)C)C3C1O)C2=O (stereo not shown) [Compound 25, 7-Isobutylamino-6-deoxy-5-hydroxytetracycline H2SO4]",974 µM,397 µM,303 µM,148 µM,185 µM,,,,,
"CCCN(CCC)c1ccc(O)c2c1C(C)C1C(=C(O)C3(O)C(=O)C(C(N)=O)=C(O)C(N(C)C)C3C1O)C2=O (stereo not shown) [Compound 24, 7-Di-n-propylamino-6-deoxy-5-hydroxytetracycline H2SO4]",405 µM,724 µM,191 µM,127 µM,160 µM,,,,,
